# Measured values taken from patent US4731486A, “Hydroformylation using low volatile phosphine ligands” (Union Carbide Corporation, priority 1986, dated 1988).
# Counter-ions that a name gives are not always drawn.
# What was measured:
# [1] = Continuous single pass hydroformylation of butene-1 (Examples 3, 4, 5, 7, 12)
# Description: Continuous hydroformylation of butene-1 a monosulfonated triphenylphosphine metal salt ligand was conducted in the following manner.
# The non-aqueous hydroformylation was conducted in a glass reactor operating in a continuous single pass butene-1 hydroformylation mode. The reactor consisted of a three-ounce pressure bottle submersed in an oil bath with a lass front for viewing. About 20-mL of a freshly prepared rhodium catalytic precursor solution was charged to the reactor with a syringe, after purging the system with nitrogen. […] After closing the reactor, the system was again purged with nitrogen and the oil bath was heated to furnish the desired hydroformylation reaction temperature. The hydroformylation reaction was conducted at a total gas pressure of about 160 psig., the partial pressures of hydrogen, carbon monoxide, and butene-1 being given in Table 3 below, the remainder being nitrogen and aldehyde product.
# The flows of the feed gases (carbon monoxide, hydrogen, butene-1 and nitrogen) were controlled individually with mass flow meters and the feed gases dispersed into the precursor solution via microporous stainless steel spargers. The unreacted portion of the feed gases was stripped out with the product C5 aldehydes and the outlet gas analyzed over about 12 days of continuous operation.
# [2] = Batch hydroformylation of propylene in stirred autoclave (Examples 1, 2, 11, 14, 19); settings: 100° C., 90 psia 1:1:1 H2:CO:C3H6
# Description: A series of various rhodium complex catalyst precursor solutions consisting essentially of the solubilized reaction product of rhodium dicarbonyl acetylacetonate and various monosulfonated triphenylphosphine metal salt ligands were prepared and employed to hydroformylate propylene into C4 aldehydes in the following manner.
# Each rhodium catalytic precursor solution so prepared was then employed to hydroformylate propylene in a magnetically stirred, 100 mL capacity, stainless steel autoclave which was attached to a gas manifold for introducing gases to the desired partial pressures. The autoclave was also equipped with a pressure calibrator for determining reaction pressure to ±0.01 psia. and a platinum resistance thermometer for determining reactor solution temperatures to ±0.10° C. The reactor was heated externally by two 300 watt heating bands. The reactor solution temperature was controlled by a platinum resistance sensor connected to an external proportional temperature controller for controlling the temperature of the external band heaters.
# In each non-aqueous hydroformylation reaction, about 15 milliliters (about 14 grams) of the rhodium catalytic precursor solution so prepared was charged to the autoclave reactor under nitrogen and heated to the reaction temperature employed (as given in Table 1 below). The reactor was then vented down to 5 psig. and a premixed gas mixture of 1:1:1 carbon monoxide:hydrogen:propylene was introduced into the reactor via the gas manifold (partial pressures given in Table 1) and the propylene so hydroformylated.
# A comparison of the catalytic activity of aqueous and non-aqueous solutions of monosulfonated triphenylphosphine sodium salt ligand promoted catalysts in hydroformylating various molecular weight alphe-olefins was determined as follows.
# Both the aqueous and non-aqueous hydroformylation reactions were conducted under identical conditions with regard to temperature, rhodium and ligand concentration, hydrogen and carbon monoxide partial pressure and olefin concentration.
# [3] = Solubility of metal salt ligands in nonanal with added solubilizing agent; type: physicochemical; settings: 25° C., nonanal with 1:4 CARBOWAX TPEG-900/TERGITOL NP-9
# [4] = Texanol, day 0.8, 80 °C, CO 40, H2 39, C4H8 3 psia
# [5] = Texanol, day 1.9, 80 °C, CO 38, H2 41, C4H8 4 psia
# [6] = Texanol, day 2.8, 80 °C, CO 39, H2 41, C4H8 3 psia
# [7] = Texanol, day 3.9, 80 °C, CO 38, H2 42, C4H8 4 psia
# [8] = Texanol, day 5.0, 80 °C, CO 38, H2 42, C4H8 4 psia
# [9] = Texanol, day 5.8, 80 °C, CO 38, H2 42, C4H8 5 psia
# [10] = Texanol, day 6.8, 80 °C, CO 38, H2 43, C4H8 4 psia
# [11] = Texanol, day 7.8, 80 °C, CO 38, H2 44, C4H8 5 psia
# [12] = Texanol, day 9.0, 80 °C, CO 39, H2 43, C4H8 5 psia
# [13] = Texanol, day 10.0, 80 °C, CO 42, H2 38, C4H8 6 psia
# [14] = Texanol, day 10.9, 80 °C, CO 41, H2 39, C4H8 6 psia
# [15] = Texanol, day 11.0 (so in the source), 80 °C, CO 41, H2 39, C4H8 6 psia
# [16] = Texanol, day 12.9, 80 °C, CO 41, H2 39, C4H8 5 psia
# [17] = Texanol, 240 ppm Rhodium, about 14 mole equivalents ligand (0.9 wt. %)
# [18] = 200 ppm Rh, about 120 mole equivalents ligand, Texanol/Carbowax PEG-600: Li 100:0, K 9:1, Rb 8:1, Cs 7:1, Ca 20:1, Ba 7:1, Sr 18:1
# [19] = Texanol/PEG-600 20:1, day 0.9, 101 °C, CO 20, H2 59, C4H8 20 psia
# [20] = Texanol/PEG-600 20:1, day 1.7, 101 °C, CO 19, H2 55, C4H8 18 psia
# [21] = Texanol/PEG-600 20:1, day 5.0, 101 °C, CO 16, H2 47, C4H8 36 psia
# [22] = Texanol/PEG-600 20:1, day 5.9, 101 °C, CO 17, H2 51, C4H8 29 psia
# [23] = Texanol/PEG-600 20:1, day 7.0, 101 °C, CO 13, H2 43, C4H8 50 psia
# [24] = Texanol/PEG-600 20:1, day 8.0, 101 °C, CO 17, H2 41, C4H8 36 psia
# [25] = Texanol/PEG-600 20:1, day 9.0, […], CO 17, H2 36, C4H8 52 psia
# [26] = Texanol/PEG-600 20:1, day 10.0, […], CO 18, H2 30, C4H8 56 psia
# [27] = Texanol/PEG-600 20:1, day 11.8, […], CO 17, H2 29, C4H8 63 psia
# [28] = Texanol/PEG-600 20:1, day 11.9 (so in the source), […], CO 17, H2 29, C4H8 59 psia
# [29] = Texanol/PEG-600 20:1, day 12.6, 103 °C, CO 18, H2 29, C4H8 61 psia
structure (smiles),measurement,setting,value
"O=S(=O)(O)c1cccc(P(C2CCCCC2)C2CCCCC2)c1 [DCHPPMS-Na, monosulfonated dicyclohexylphenylphosphine sodium salt]",Linear/Branched Aldehyde Mole Ratio,[1]; [4],1.86
same,"Rate (C5 aldehydes), daily average",[1]; [4],0.86 gmoles/L/Hr
same,Linear/Branched Aldehyde Mole Ratio,[1]; [5],1.88
same,"Rate (C5 aldehydes), daily average",[1]; [5],1.02 gmoles/L/Hr
same,Linear/Branched Aldehyde Mole Ratio,[1]; [6],1.99
same,"Rate (C5 aldehydes), daily average",[1]; [6],0.87 gmoles/L/Hr
same,Linear/Branched Aldehyde Mole Ratio,[1]; [7],1.84
same,"Rate (C5 aldehydes), daily average",[1]; [7],0.85 gmoles/L/Hr
same,Linear/Branched Aldehyde Mole Ratio,[1]; [8],1.83
same,"Rate (C5 aldehydes), daily average",[1]; [8],0.88 gmoles/L/Hr
same,Linear/Branched Aldehyde Mole Ratio,[1]; [9],1.79
same,"Rate (C5 aldehydes), daily average",[1]; [9],0.86 gmoles/L/Hr
same,Linear/Branched Aldehyde Mole Ratio,[1]; [10],1.95
same,"Rate (C5 aldehydes), daily average",[1]; [10],0.80 gmoles/L/Hr
same,Linear/Branched Aldehyde Mole Ratio,[1]; [11],1.78
same,"Rate (C5 aldehydes), daily average",[1]; [11],0.86 gmoles/L/Hr
same,Linear/Branched Aldehyde Mole Ratio,[1]; [12],1.75
same,"Rate (C5 aldehydes), daily average",[1]; [12],0.72 gmoles/L/Hr
same,Linear/Branched Aldehyde Mole Ratio,[1]; [13],1.79
same,"Rate (C5 aldehydes), daily average",[1]; [13],0.94 gmoles/L/Hr
same,Linear/Branched Aldehyde Mole Ratio,[1]; [14],1.89
same,"Rate (C5 aldehydes), daily average",[1]; [14],0.95 gmoles/L/Hr
same,Linear/Branched Aldehyde Mole Ratio,[1]; [15],1.92
same,"Rate (C5 aldehydes), daily average",[1]; [15],0.99 gmoles/L/Hr
same,Linear/Branched Aldehyde Mole Ratio,[1]; [16],1.77
same,"Rate (C5 aldehydes), daily average",[1]; [16],0.95 gmoles/L/Hr
same,Linear/Branched Aldehyde Mole Ratio,[2]; [17],1.2
same,Reaction Rate (C4 aldehydes),[2]; [17],0.78 G moles/L/hr
"O=S(=O)(O)c1cccc(P(c2ccccc2)C2CCCCC2)c1 (stereo not drawn) [CHDPPMS-Na, monosulfonated cyclohexyldiphenylphosphine sodium salt]",Linear/Branched Aldehyde Mole Ratio,[2]; [17],1.6
same,Reaction Rate (C4 aldehydes),[2]; [17],0.32 G moles/L/hr
O=S(=O)(O)c1cccc(P(c2ccccc2)c2ccccc2)c1 [K^+],Linear/Branched Aldehyde Mole Ratio,"[2]; 200 ppm Rh, about 120 mole equivalents ligand, Texanol/Carbowax PEG-600: Li 100:0, K 9:1, Rb 8:1, Ca 20:1, Ba 7:1",5.1
same,Reaction Rate (C4 aldehydes),[2]; [18],0.87 Gmoles/L/Hr
O=S(=O)(O)c1cccc(P(c2ccccc2)c2ccccc2)c1 [Sr^++],Reaction Rate (C4 aldehydes),[2]; [18],No Rate
O=S(=O)(O)c1cccc(P(c2ccccc2)c2ccccc2)c1 [Cs^+],Metal Salt Solubility,[3],> 10 Wt. %
same,Reaction Rate (C4 aldehydes),[2]; [18],Declining Rate
"O=S(=O)(O)c1cccc(P(c2ccccc2)c2ccccc2)c1 [Ca^++, monosulfonated triphenylphosphine calcium salt]",Metal Salt Solubility,[3]; calcium salt,18 Wt. %
same,Linear/Branched Aldehyde Mole Ratio,[1]; [19],12.84
same,"Rate (C5 aldehydes), daily average",[1]; [19],1.27 gmoles/L/Hr
same,Linear/Branched Aldehyde Mole Ratio,[1]; [20],14.44
same,"Rate (C5 aldehydes), daily average",[1]; [20],1.38 gmoles/L/Hr
same,Linear/Branched Aldehyde Mole Ratio,[1]; [21],13.06
same,"Rate (C5 aldehydes), daily average",[1]; [21],1.62 gmoles/L/Hr
same,Linear/Branched Aldehyde Mole Ratio,[1]; [22],17.67
same,"Rate (C5 aldehydes), daily average",[1]; [22],1.64 gmoles/L/Hr
same,Linear/Branched Aldehyde Mole Ratio,[1]; [23],20.95
same,"Rate (C5 aldehydes), daily average",[1]; [23],1.85 gmoles/L/Hr
same,Linear/Branched Aldehyde Mole Ratio,[1]; [24],18.76
same,"Rate (C5 aldehydes), daily average",[1]; [24],2.09 gmoles/L/Hr
same,Linear/Branched Aldehyde Mole Ratio,[1]; [25],18.38
same,"Rate (C5 aldehydes), daily average",[1]; [25],2.19 gmoles/L/Hr
same,Linear/Branched Aldehyde Mole Ratio,[1]; [26],20.52
same,"Rate (C5 aldehydes), daily average",[1]; [26],1.40 gmoles/L/Hr
same,Linear/Branched Aldehyde Mole Ratio,[1]; [27],18.90
same,"Rate (C5 aldehydes), daily average",[1]; [27],1.51 gmoles/L/Hr
same,Linear/Branched Aldehyde Mole Ratio,[1]; [28],21.86
same,"Rate (C5 aldehydes), daily average",[1]; [28],1.62 gmoles/L/Hr
same,Linear/Branched Aldehyde Mole Ratio,[1]; [29],28.03
same,"Rate (C5 aldehydes), daily average",[1]; [29],1.83 gmoles/L/Hr
same,Linear/Branched Aldehyde Mole Ratio,"[2]; 200 ppm Rh, about 120 mole equivalents ligand, Texanol/Carbowax PEG-600: Li 100:0, K 9:1, Rb 8:1, Ca 20:1, Ba 7:1, calcium salt",4.7
same,Reaction Rate (C4 aldehydes),"[2]; 200 ppm Rh, about 120 mole equivalents ligand, Texanol/Carbowax PEG-600: Li 100:0, K 9:1, Rb 8:1, Cs 7:1, Ca 20:1, Ba 7:1, Sr 18:1, calcium salt",0.51 Gmoles/L/Hr
